Source: patent publication US8753841B2, “Enzyme that catalyzes a peptide-forming reaction from a carboxy component and an amine component, microbe producing the same, and a method of producing a dipeptide using the enzyme or microbe” (Ajinomoto Co., Inc., priority 2002, dated 2014)
Residues, ends and D or L forms follow the SMILES beside them.

What was measured:
[1] = tested on: peptide-forming enzyme from Empedobacter brevis strain FERM BP-8113; experiment: Substrate specificity of enzyme (peptide production from carboxy and amine components); assay type: biochemical; details: L-amino acid amide hydrochloride 100 mM as carboxy component, L-amino acid 150 mM, pH 9.0, 25° C., 3 hours
[2] = tested on: peptide-forming enzyme from Empedobacter brevis strain FERM BP-8113; experiment: as above; assay type: biochemical; details: L-amino acid methyl ester hydrochloride 100 mM, 150 mM L-glutamine, pH 9.0, 25° C., 3 hours
Description: Ester specificity was examined in the case of using L-amino acid ester for the carboxy component. […] HCl represents hydrochloride in Table 4.
Peptide production was examined in the case of using L-alanine methyl ester for the carboxy component and using various L-amino acids for the amine component.
Peptide production was examined in the case of using various types of L-amino acid methyl esters for the carboxy component and using L-glutamine for the amine component. […] Furthermore, Tween-80 was added to the reaction system to a final concentration of 0.1% in the case of using L-Trp-OMe and L-Tyr-OMe.

[3] = tested on: peptide-forming enzyme from Empedobacter brevis strain FERM BP-8113; experiment: Production of L-alanyl-L-glutamine from L-alanine methyl ester and L-glutamine with the Mono S fraction enzyme; details: L-alanine methyl ester hydrochloride 100 mM, 18° C., 2 hours
[4] = tested on: Sphingobacterium sp. strain FERM BP-8124 microbial cells; experiment: Production of L-alanyl-L-glutamine using microbial cells of Sphingobacterium sp.; assay type: cell-based; details: 0.1 mL 100 g/L cell suspension + 0.1 mL buffer with 200 mM L-alanine methyl ester hydrochloride, 400 mM L-glutamine, pH 9.0, 25° C., 120 minutes
Description: (§1) 22, 2002). […] 1 ml of this culture broth was then added to the aforementioned medium (50 ml/500 mL Sakaguchi flask) and cultured at 30° C. for 18 hours. Following completion of the culturing, the microbial cells were separated from the culture broth by centrifugation and suspended in 0.1 M borate buffer (pH 9.0) containing 10 mM EDTA at a concentration of 100 g/L as wet microbial cells. […] The resulting 0.2 mL of mixture was allowed to react at 25° C. for 120 minutes. The concentration of L-alanyl-L-glutamine formed at this time was 62 mM.
as §1, with “After” for “Following”, “culture,” for “culturing,”, “minutes.” for “minutes. The concentration of L-alanyl-L-glutamine formed at this time was 62 mM.”

[5] = tested on: peptide-forming enzyme from Sphingobacterium sp. strain FERM BP-8124; experiment: Production of L-alanyl-L-glutamine using SP-Sepharose HP enzyme fraction of Sphingobacterium sp.; assay type: biochemical; details: 10 μl SP-Sepharose HP fraction + 90 μl buffer with 111 mM L-alanine methyl ester hydrochloride, 222 mM L-glutamine, pH 9.0, 25° C., 120 minutes
Description: As a result, 73 mM of L-alanyl-L-glutamine was formed in the enzyme-added lot.

[6] = tested on: enzyme derived from Sphingobacterium sp. strain FERM BP-8124; experiment: Substrate specificity of enzyme derived from Sphingobacterium sp.; assay type: biochemical; details: Table 15-4; carboxy component 100 mM, amine component 150 mM, 0.33 units enzyme, pH 9.0, 25° C., 1.5 hours
[7] = tested on: Empedobacter brevis strain FERM BP-8113 microbial cells; experiment: Production of peptide using microbial cells of Empedobacter brevis; assay type: cell-based; details: 1 mL 100 g/L cell suspension + 1 mL buffer with 200 mM carboxy component, 400 mM amino acid, 10 mM EDTA, pH 9.0, 18° C., 2 hours
Description: A 50 mL medium (pH 6.2) containing 5 grams (g) of glucose, 5 g of ammonium sulfate, 1 g of monopotassium phosphate, 3 g of dipotassium phosphate, 0.5 g of magnesium sulfate, 10 g of yeast extract and 10 g of peptone in 1 liter (L) was transferred to a 500 mL Sakaguchi flask and sterilized at 115° C. for 15 minutes.
Microbial cells were collected by centrifuging (10,000 rounds per minute (rpm), 15 minutes) the culture broth obtained in Example 1, followed by suspending them to a concentration of 100 g/L in 100 mM borate buffer (pH 9.0) containing 10 mM EDTA. After respectively adding 1 mL of the suspension to 1 mL each of 100 mM borate buffer solutions (pH 9.0) containing 10 mM EDTA, 200 mM of the following carboxy components, and 400 mM of the following amino acids to make a final volume of 2 mL, the reaction was carried out at 18° C. for 2 hours.

[8] = Comparison of ability to catalyze peptide formation with known enzymes; assay type: biochemical; details: enzyme of present invention = 100.0
Description: The peptide-forming ability of the present enzyme was compared with that of known enzymes. Carboxypeptidase Y described in EP 278787A1 and the thiol endopeptidases (ficin, papain, bromelain, and chymopapain) described in EP 359399B1 were used as the known enzymes, and they were used in the form of purified enzymes (manufactured by Sigma). The enzyme uniformly purified in Example 3 was used as a source of the present enzyme of the present invention. […] As has been described above, the present enzyme was verified to have an extremely high peptide production rate unlike any known enzyme in the prior art. Furthermore, the enzyme of the present invention is a dimer having a molecular weight of about 75,000. In contrast, the molecular weight of the carboxypeptidase Y has been reported to be about 61,000, while the molecular weight of thiol endopeptidase has been reported to be about 23,000 to 36,000. Thus, the L-alanyl-L-glutamine production rate of the enzyme of the present invention as compared to those of the carboxypeptidase Y and the thiol endopeptidase is even greater when the rate is expressed per molecular weight than when it is expressed per unit weight as indicated in the examples.

Formed peptide [1] [mM] | Formed peptide [2] [mM] | L-Ala-L-Gln ([3]; L-glutamine 100 mM) [mM] | L-Ala-L-Gln ([3]; L-glutamine 110 mM) [mM] | L-Ala-L-Gln ([3]; L-glutamine 120 mM) [mM] | L-Ala-L-Gln ([3]; L-glutamine 130 mM) [mM] | L-Ala-L-Gln ([3]; L-glutamine 150 mM) [mM] | L-Ala-L-Gln ([3]; L-glutamine 200 mM) [mM] | L-alanyl-L-glutamine formed [5] [mM] | Produced peptide [6] [mM] | Ratio of L-Ala-L-Gln production rate per enzyme unit weight [8] | Molecule | concentration of L-alanyl-L-glutamine formed [4] [mM] | Formed peptide [7] [mM]
7.6 | 74.6 | 68.2 | 72.1 | 73.3 | 75.1 | 75.5 | 82.0 | 73 | 0.3 |  | C[C@H](N)C(=O)N[C@@H](CCC(N)=O)C(=O)O [L-Ala-L-Gln, L-alanyl-L-glutamine] (H-Ala-Gln-OH) | 62 | 68.0
 |  |  |  |  |  |  |  |  |  | 0.0191 | Carboxypeptidase Y: known enzyme described in EP 278787A1, purified enzyme manufactured by Sigma (protein, UniProt P00729 112-532, looked up) Carboxypeptidase Y: KIKDPKILGIDPNVTQYTGYLDVEDEDKHFFFWTFESRNDPAKDPVILWLNGGPGCSSLTGLFFELGPSSIGPDLKPIGNPYSWNSNATVIFLDQPVNVGFSYSGSSGVSNTVAAGKDVYNFLELFFDQFPEYVNKGQDFHIAGESYAGHYIPVFASEILSHKDRNFNLTSVLIGNGLTDPLTQYNYYEPMACGEGGEPSVLPSEECSAMEDSLERCLGLIESCYDSQSVWSCVPATIYCNNAQLAPYQRTGRNVYDIRKDCEGGNLCYPTLQDIDDYLNQDYVKEAVGAEVDHYESCNFDINRNFLFAGDWMKPYHTAVTDLLNQDLPILVYAGDKDFICNWLGNKAWTDVLPWKYDEEFASQKVRNWTASITDEVAGEVKSYKHFTYLRVFNGGHMVPFDVPENALSMVNEWIHGGFSL |  | 
